Measurements from patent US9211310B2, “Use of a Chinese medicine composition in preparing medicaments for treating secondary prevention of myocardial infarction” (TASLY PHARMACEUTICAL GROUP CO., LTD, priority 2010, dated 2015).

Tested on: patients after acute myocardial infarction
Experiment: Angina pectoris score, total and single (frequency/attack times, duration, pain degree, dose of nitroglycerin), same clinical trial
Type: in vivo, human
Set-up: total angina pectoris score, Md / total angina pectoris score, Mean: scale not given here
Details: for attack times score, patients (%): Baseline; for distribution of total angina pectoris score: Medium, number of patients / distribution of total angina pectoris score: Medium, percentage of patients / distribution of total angina pectoris score: Mild, number of patients / distribution of total angina pectoris score: Mild, percentage of patients / distribution of total angina pectoris score: Severe, number of patients / distribution of total angina pectoris score: Severe, percentage of patients / patients with dose of nitroglycerin score 0 (%) / patients with dose of nitroglycerin score 1 (%) / patients with dose of nitroglycerin score 2 (%) / patients with dose of nitroglycerin score 4 (%) / patients with dose of nitroglycerin score 6 (%) / total angina pectoris score, Md / total angina pectoris score, Mean / change of total angina pectoris score, Md / change of total angina pectoris score, Mean / patients with change of dose of nitroglycerin score 0 (%) / patients with change of dose of nitroglycerin score 1 (%) / patients with change of dose of nitroglycerin score 2 (%) / patients with change of dose of nitroglycerin score 4 (%) / patients with change of dose of nitroglycerin score 6 (%) / patients with change of dose of nitroglycerin score −1 (%) / patients with change of dose of nitroglycerin score −2 (%) / patients with change of dose of nitroglycerin score −3 (%) / patients with change of dose of nitroglycerin score −4 (%) / patients with change of dose of nitroglycerin score −6 (%) / patients with change of dose of nitroglycerin score −5 (%): FAS
Excerpt: In order to better understand the present invention, a multi-center, randomized, double-blind, double-dummy and positive drug controlled trial had been conducted. 3508 patients who were in accordance with the diagnostic standards of AMI for 28 days to 2 years and differentiated as Qi deficiency and blood stagnation syndrome by TCM were studied. 0.5 g Chinese medicine composition prepared by the method of EXAMPLE 1 (Coded as QSYQ) was administrated half an hour after meal, 3 times per day. Aspirine was used as a positive drug. The patients were treated for 1 year and observed for 6 months.
They included the overall survival time, angina pectoris score, TCM symptom score and life quality score, where angina pectoris score, TCM symptom score and life quality score were evaluated at randomization, in 1st, 3rd, 6th, 9th, 12th month after treatment and 18th month after follow-up.
(§1) Total angina pectoris score was described on every observation period and the change of observation in comparison with baseline. T-test or Wilcoxon rank sum test were used for inter-group comparison. Grade of total score was evaluated on every observation and Wilcoxon rank sum test was used for inter-group comparison. T-test and Pairing signed rank sum test were used for analyzing the change of total score on every observation between groups in comparison with the baseline.
(§2) Single angina pectoris score was depicted on every observation time-point and the change of observation in comparison with baseline. Wilcoxon rank sum test was used for inter-group comparison. Pairing signed rank sum test was used for analyzing the change of total score on every observation between groups in comparison with the baseline.
as §1, with “comparison with the baseline. T-test” for “comparison with baseline. T-test”
as §2, with “described” for “depicted”

[1] = 1 month after treatment-baseline
[2] = 3 months after treatment-baseline
[3] = 6 months after treatment-baseline
[4] = 9 months after treatment-baseline

CC(=O)Oc1ccccc1C(=O)O [Control group, aspirine]
attack times score, patients (%) (score 1, PP): (8.95%) | attack times score, patients (%) (score 2, FAS): (53.24%) | attack times score, patients (%) (score 2, PP): (53.51%) | attack times score, patients (%) (score 4, FAS): (9.12%) | attack times score, patients (%) (score 4, PP): (9.55%) | attack times score, patients (%) (score 6, FAS): (1.03%) | attack times score, patients (%) (score 6, PP): (1.00%) | distribution of total angina pectoris score: Medium, number of patients (1 month after treatment): 484 | distribution of total angina pectoris score: Medium, percentage of patients (1 month after treatment): (28.24%) | distribution of total angina pectoris score: Mild, number of patients (1 month after treatment): 1203 | distribution of total angina pectoris score: Mild, percentage of patients (1 month after treatment): (70.19%) | distribution of total angina pectoris score: Severe, number of patients (1 month after treatment): 27 | distribution of total angina pectoris score: Severe, percentage of patients (1 month after treatment): (1.58%) | patients with dose of nitroglycerin score 0 (%) (1 month after treatment): (59.78%) | patients with dose of nitroglycerin score 1 (%) (1 month after treatment): (0.29%) | patients with dose of nitroglycerin score 2 (%) (1 month after treatment): (28.94%) | patients with dose of nitroglycerin score 4 (%) (1 month after treatment): (7.65%) | patients with dose of nitroglycerin score 6 (%) (1 month after treatment): (3.34%) | total angina pectoris score, Md (1 month after treatment): 6.00 | total angina pectoris score, Mean (1 month after treatment): 5.92 | change of total angina pectoris score, Md [1]: 0.00 | change of total angina pectoris score, Mean [1]: −1.19 | patients with change of dose of nitroglycerin score 0 (%) [1]: (80.53%) | patients with change of dose of nitroglycerin score 1 (%) [1]: (0.17%) | patients with change of dose of nitroglycerin score 2 (%) [1]: (3.92%) | patients with change of dose of nitroglycerin score 4 (%) [1]: (1.04%) | patients with change of dose of nitroglycerin score 6 (%) [1]: (0.23%) | patients with change of dose of nitroglycerin score −1 (%) [1]: (0.00%) | patients with change of dose of nitroglycerin score −2 (%) [1]: (11.41%) | patients with change of dose of nitroglycerin score −3 (%) [1]: (0.06%) | patients with change of dose of nitroglycerin score −4 (%) [1]: (2.13%) | patients with change of dose of nitroglycerin score −6 (%) [1]: (0.52%) | distribution of total angina pectoris score: Medium, number of patients (3 months after treatment): 397 | distribution of total angina pectoris score: Medium, percentage of patients (3 months after treatment): (23.97%) | distribution of total angina pectoris score: Mild, number of patients (3 months after treatment): 1241 | distribution of total angina pectoris score: Mild, percentage of patients (3 months after treatment): (74.94%) | distribution of total angina pectoris score: Severe, number of patients (3 months after treatment): 18 | distribution of total angina pectoris score: Severe, percentage of patients (3 months after treatment): (1.09%) | patients with dose of nitroglycerin score 0 (%) (3 months after treatment): (61.98%) | patients with dose of nitroglycerin score 1 (%) (3 months after treatment): (0.63%) | patients with dose of nitroglycerin score 2 (%) (3 months after treatment): (29.58%) | patients with dose of nitroglycerin score 4 (%) (3 months after treatment): (5.23%) | patients with dose of nitroglycerin score 6 (%) (3 months after treatment): (2.58%) | total angina pectoris score, Md (3 months after treatment): 6.00 | total angina pectoris score, Mean (3 months after treatment): 5.38 | change of total angina pectoris score, Md [2]: 0.00 | change of total angina pectoris score, Mean [2]: −1.73 | patients with change of dose of nitroglycerin score 0 (%) [2]: (75.23%) | patients with change of dose of nitroglycerin score 1 (%) [2]: (0.17%) | patients with change of dose of nitroglycerin score 2 (%) [2]: (4.44%) | patients with change of dose of nitroglycerin score 4 (%) [2]: (0.69%) | patients with change of dose of nitroglycerin score 6 (%) [2]: (0.29%) | patients with change of dose of nitroglycerin score −1 (%) [2]: (0.29%) | patients with change of dose of nitroglycerin score −2 (%) [2]: (15.15%) | patients with change of dose of nitroglycerin score −4 (%) [2]: (2.94%) | patients with change of dose of nitroglycerin score −5 (%) [2]: (0.12%) | patients with change of dose of nitroglycerin score −6 (%) [2]: (0.69%) | distribution of total angina pectoris score: Medium, number of patients (6 months after treatment): 309 | distribution of total angina pectoris score: Medium, percentage of patients (6 months after treatment): (19.43%) | distribution of total angina pectoris score: Mild, number of patients (6 months after treatment): 1273 | distribution of total angina pectoris score: Mild, percentage of patients (6 months after treatment): (80.06%) | distribution of total angina pectoris score: Severe, number of patients (6 months after treatment): 8 | distribution of total angina pectoris score: Severe, percentage of patients (6 months after treatment): (0.50%) | patients with dose of nitroglycerin score 0 (%) (6 months after treatment): (65.38%) | patients with dose of nitroglycerin score 1 (%) (6 months after treatment): (0.86%) | patients with dose of nitroglycerin score 2 (%) (6 months after treatment): (28.24%) | patients with dose of nitroglycerin score 4 (%) (6 months after treatment): (3.62%) | patients with dose of nitroglycerin score 6 (%) (6 months after treatment): (1.89%) | total angina pectoris score, Md (6 months after treatment): 5.00 | total angina pectoris score, Mean (6 months after treatment): 4.78 | change of total angina pectoris score, Md [3]: 0.00 | change of total angina pectoris score, Mean [3]: −2.34 | patients with change of dose of nitroglycerin score 0 (%) [3]: (70.05%) | patients with change of dose of nitroglycerin score 1 (%) [3]: (0.40%) | patients with change of dose of nitroglycerin score 2 (%) [3]: (4.84%) | patients with change of dose of nitroglycerin score 4 (%) [3]: (0.40%) | patients with change of dose of nitroglycerin score 6 (%) [3]: (0.35%) | patients with change of dose of nitroglycerin score −1 (%) [3]: (0.23%) | patients with change of dose of nitroglycerin score −2 (%) [3]: (18.49%) | patients with change of dose of nitroglycerin score −3 (%) [3]: (0.00%) | patients with change of dose of nitroglycerin score −4 (%) [3]: (4.03%) | patients with change of dose of nitroglycerin score −5 (%) [3]: (0.17%) | patients with change of dose of nitroglycerin score −6 (%) [3]: (1.04%) | distribution of total angina pectoris score: Medium, number of patients (9 months after treatment): 244 | distribution of total angina pectoris score: Medium, percentage of patients (9 months after treatment): (15.97%) | distribution of total angina pectoris score: Mild, number of patients (9 months after treatment): 1280 | distribution of total angina pectoris score: Mild, percentage of patients (9 months after treatment): (83.77%) | distribution of total angina pectoris score: Severe, number of patients (9 months after treatment): 4 | distribution of total angina pectoris score: Severe, percentage of patients (9 months after treatment): (0.26%) | patients with dose of nitroglycerin score 0 (%) (9 months after treatment): (67.11%) | patients with dose of nitroglycerin score 1 (%) (9 months after treatment): (1.03%) | patients with dose of nitroglycerin score 2 (%) (9 months after treatment): (27.73%) | patients with dose of nitroglycerin score 4 (%) (9 months after treatment): (2.41%) | patients with dose of nitroglycerin score 6 (%) (9 months after treatment): (1.72%) | total angina pectoris score, Md (9 months after treatment): 5.00 | total angina pectoris score, Mean (9 months after treatment): 4.39 | change of total angina pectoris score, Md [4]: −1.00 | change of total angina pectoris score, Mean [4]: −2.72 | patients with change of dose of nitroglycerin score 0 (%) [4]: (67.45%) | patients with change of dose of nitroglycerin score 1 (%) [4]: (0.35%) | patients with change of dose of nitroglycerin score 2 (%) [4]: (4.84%) | patients with change of dose of nitroglycerin score 4 (%) [4]: (0.46%) | patients with change of dose of nitroglycerin score 6 (%) [4]: (0.35%) | patients with change of dose of nitroglycerin score −1 (%) [4]: (0.46%) | patients with change of dose of nitroglycerin score −2 (%) [4]: (20.16%) | patients with change of dose of nitroglycerin score −3 (%) [4]: (0.12%) | patients with change of dose of nitroglycerin score −4 (%) [4]: (4.26%) | patients with change of dose of nitroglycerin score −5 (%) [4]: (0.17%) | patients with change of dose of nitroglycerin score −6 (%) [4]: (1.38%) | distribution of total angina pectoris score: Medium, number of patients (12 months after treatment): 176 | distribution of total angina pectoris score: Medium, percentage of patients (12 months after treatment): (11.96%) | distribution of total angina pectoris score: Mild, number of patients (12 months after treatment): 1294 | distribution of total angina pectoris score: Mild, percentage of patients (12 months after treatment): (87.91%) | distribution of total angina pectoris score: Severe, number of patients (12 months after treatment): 2 | distribution of total angina pectoris score: Severe, percentage of patients (12 months after treatment): (0.14%) | patients with dose of nitroglycerin score 0 (%) (12 months after treatment): (71.58%) | patients with dose of nitroglycerin score 1 (%) (12 months after treatment): (1.09%) | patients with dose of nitroglycerin score 2 (%) (12 months after treatment): (23.59%) | patients with dose of nitroglycerin score 4 (%) (12 months after treatment): (2.07%) | patients with dose of nitroglycerin score 6 (%) (12 months after treatment): (1.66%) | total angina pectoris score, Md (12 months after treatment): 0.00 | total angina pectoris score, Mean (12 months after treatment): 3.83
